Measured values reported in patent US10799605B2 (3B PHARMACEUTICALS GMBH, priority 2014, dated 2020).
Like-named read-outs stand apart in the source and are kept apart here.

Assays:
[1] = target: NTR1 (Homo sapiens (Human), UniProt P30989); assay: Functional Ca2+ mobilisation assay (example part II); format: cell-based; details: antagonist assay
How it was run: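 HT29 or NTR1-expressing HEK293 cells loaded with Ca5 dye for 1 h at 37 °C in buffer at pH 7.4, and fluorescence recorded for about 90 s after addition. EC50 derived from agonist serial dilutions; IC50 from antagonists pre-incubated 30 min before an EC80 agonist challenge.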

[2] = target: H2 (h) (Homo sapiens (Human), UniProt P25021); assay: ExpresSProfile: histamine receptor 2, antagonist radioligand; format: binding; details: Test Concentration 1.0E−05 M
[3] = target: B2 (h) (Homo sapiens (Human), UniProt P30411); assay: ExpresSProfile: bradykinin receptor 2, agonist radioligand; format: binding; details: Test Concentration 1.0E−05 M
[4] = target: CXCR2 (IL-8B) (h) (Homo sapiens (Human), UniProt P25025); assay: ExpresSProfile: C-X-C chemokine receptor type 2, agonist radioligand; format: binding; details: Test Concentration 1.0E−05 M
[5] = read-out: % Inhibition of Control Specific Binding
[6] = read-out: % of Control Specific Binding 1st
[7] = read-out: % of Control Specific Binding 2nd
[8] = read-out: % of Control Specific Binding Mean

Chain of B2 (h) (P30411 whole entry): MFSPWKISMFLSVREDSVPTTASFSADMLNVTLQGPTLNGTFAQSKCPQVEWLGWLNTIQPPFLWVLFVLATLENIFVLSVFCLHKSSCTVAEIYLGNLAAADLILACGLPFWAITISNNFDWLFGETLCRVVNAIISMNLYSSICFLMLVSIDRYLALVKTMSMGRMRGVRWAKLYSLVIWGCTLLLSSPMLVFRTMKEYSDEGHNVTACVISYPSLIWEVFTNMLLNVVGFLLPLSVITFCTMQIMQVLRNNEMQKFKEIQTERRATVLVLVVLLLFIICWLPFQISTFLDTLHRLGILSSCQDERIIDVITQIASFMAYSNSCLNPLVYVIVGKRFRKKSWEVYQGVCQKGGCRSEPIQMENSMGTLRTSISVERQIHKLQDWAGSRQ
Chain of CXCR2 (IL-8B) (h) (P25025 whole entry): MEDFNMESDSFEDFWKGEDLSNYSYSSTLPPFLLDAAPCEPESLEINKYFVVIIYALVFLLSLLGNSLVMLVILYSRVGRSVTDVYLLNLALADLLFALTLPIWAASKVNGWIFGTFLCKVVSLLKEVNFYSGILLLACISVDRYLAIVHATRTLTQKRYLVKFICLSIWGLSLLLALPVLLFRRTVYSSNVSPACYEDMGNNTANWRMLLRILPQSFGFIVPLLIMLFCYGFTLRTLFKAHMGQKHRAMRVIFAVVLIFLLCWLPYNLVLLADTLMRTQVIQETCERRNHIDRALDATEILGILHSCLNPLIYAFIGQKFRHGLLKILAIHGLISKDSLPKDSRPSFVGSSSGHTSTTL
Chain of H2 (h) (P25021 whole entry): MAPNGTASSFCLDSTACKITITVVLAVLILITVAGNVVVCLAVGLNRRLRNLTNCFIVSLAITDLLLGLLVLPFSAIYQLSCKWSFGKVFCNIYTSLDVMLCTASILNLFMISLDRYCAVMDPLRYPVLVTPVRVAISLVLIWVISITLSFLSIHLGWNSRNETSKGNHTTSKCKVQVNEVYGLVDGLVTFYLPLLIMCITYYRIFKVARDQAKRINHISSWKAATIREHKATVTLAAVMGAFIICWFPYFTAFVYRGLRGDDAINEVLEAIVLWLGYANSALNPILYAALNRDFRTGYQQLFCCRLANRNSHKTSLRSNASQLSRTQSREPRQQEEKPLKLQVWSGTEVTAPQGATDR
Chain of NTR1 (P30989 whole entry): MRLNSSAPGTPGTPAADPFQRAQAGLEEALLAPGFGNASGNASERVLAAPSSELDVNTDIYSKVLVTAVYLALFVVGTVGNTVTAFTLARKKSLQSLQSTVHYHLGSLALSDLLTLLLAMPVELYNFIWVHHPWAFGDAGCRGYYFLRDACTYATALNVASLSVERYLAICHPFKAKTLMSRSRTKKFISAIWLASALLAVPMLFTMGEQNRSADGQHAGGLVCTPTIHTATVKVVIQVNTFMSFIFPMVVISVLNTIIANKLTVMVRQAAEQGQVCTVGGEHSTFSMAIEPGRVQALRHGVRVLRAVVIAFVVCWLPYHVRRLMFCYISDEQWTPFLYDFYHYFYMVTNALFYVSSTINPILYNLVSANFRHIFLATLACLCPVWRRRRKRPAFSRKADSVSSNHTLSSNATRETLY

COc1cccc(OC)c1-c1cc(C(=O)NC2(C(=O)O)C3CC4CC(C3)CC2C4)nn1-c1ccc(C(=O)N(C)CCCN(C)CCCN(C)C(=O)CN2CCN(CC(=O)O)CCN(CC(=O)O)CCN(CC(=O)O)CC2)cc1C(C)C (stereo not shown) [(IIIa), 2-{[1-{4-[(3-{[3-(DOTA-methyl-amino)-propyl]-methyl-amino}-propyl)-methyl-carbamoyl]-2-isopropyl-phenyl}-5-(2,6-dimethoxy-phenyl)-1H-pyrazole-3-carbonyl]-amino}-adamantane-2-carboxylic acid]
IC50 [1]: 20 nM | inhibition at 10 µM [2, 5]: -4% | remaining activity at 10 µM [2, 6]: 106% | remaining activity at 10 µM [2, 7]: 102% | remaining activity at 10 µM [2, 8]: 104% | inhibition at 10 µM [3, 5]: 11% | remaining activity at 10 µM [3, 6]: 98.7% | remaining activity at 10 µM [3, 7]: 79.9% | remaining activity at 10 µM [3, 8]: 89.3% | inhibition at 10 µM [4, 5]: -9% | remaining activity at 10 µM [4, 6]: 119% | remaining activity at 10 µM [4, 7]: 99.6% | remaining activity at 10 µM [4, 8]: 109%
